Results on eight molecules are retold here after ChEMBL document CHEMBL1153334, “New cyclic peptide proteasome inhibitors” (Bioorg Med Chem Lett, 2009).

A value given as a limit tells only on which side of the number the result lay.

The nature of one series: Metabolic stability in human plasma assessed as half life after 360 mins. The series is classed as ADME, cell-free.
`COC(=O)/C=C/[C@H](CC(C)C)NC(=O)CC[C@@H]1NC(=O)[C@H](CC(C)C)NC(=O)[C@H](CC(C)C)C(=O)NC(=O)[C@H](C(C)C)NC1=O`: the half-life is above 360 min.

In the case of `COC(=O)/C=C/[C@H](CC(C)C)NC(=O)CC[C@H](NC(=O)[C@H](CC(C)C)NC(=O)[C@H](CC(C)C)C(=O)NC(=O)CN)C(N)=O`, the half-life was found to be 48.5 min.

`COC(=O)/C=C/[C@H](CC(C)C)NC(=O)CC[C@H](NC(=O)[C@H](CC(C)C)NC(=O)[C@H](CC(C)C)C(=O)NC(=O)[C@@H](N)CO)C(N)=O`: the half-life was 86.1 min.

As for `COC(=O)/C=C/[C@H](CC(C)C)NC(=O)CC[C@@H]1NC(=O)[C@H](CC(C)C)NC(=O)[C@H](CC(C)C)C(=O)NC(=O)[C@H](C)NC1=O`, the half-life was above 360 min.

In the case of `COC(=O)/C=C/[C@H](CC(C)C)NC(=O)CC[C@H](NC(=O)[C@H](CC(C)C)NC(=O)[C@H](CC(C)C)C(=O)NC(=O)[C@@H](N)C(C)C)C(N)=O`, the half-life was 117 min.

Regarding `COC(=O)/C=C/[C@H](CC(C)C)NC(=O)CC[C@@H]1NC(=O)[C@H](CC(C)C)NC(=O)[C@H](CC(C)C)C(=O)NC(=O)CNC1=O`, the half-life is above 360 min.

On to `COC(=O)/C=C/[C@H](CC(C)C)NC(=O)CC[C@@H]1NC(=O)[C@H](CC(C)C)NC(=O)[C@H](CC(C)C)C(=O)NC(=O)[C@H](CO)NC1=O`, for which the half-life is above 360 min.

Turning to `COC(=O)/C=C/[C@H](CC(C)C)NC(=O)CC[C@H](NC(=O)[C@H](CC(C)C)NC(=O)[C@H](CC(C)C)C(=O)NC(=O)[C@H](C)N)C(N)=O`, the half-life came to 73.2 min.

A further series in a line: cells.
Description: Inhibition of caspase-like activity of 20S proteasome beta 1 subunit by cell based assay
The molecule `COC(=O)/C=C/[C@H](CC(C)C)NC(=O)CC[C@@H]1NC(=O)[C@H](CC(C)C)NC(=O)[C@H](CC(C)C)C(=O)NC(=O)[C@H](C(C)C)NC1=O` gave an IC50 of 273 nM.

As for `COC(=O)/C=C/[C@H](CC(C)C)NC(=O)CC[C@@H]1NC(=O)[C@H](CC(C)C)NC(=O)[C@H](CC(C)C)C(=O)NC(=O)[C@H](C)NC1=O`, half-maximal inhibition (IC50) was put at 123 nM. This IC50 lies about 2.2-fold lower than the previous one.

In turn, `COC(=O)/C=C/[C@H](CC(C)C)NC(=O)CC[C@@H]1NC(=O)[C@H](CC(C)C)NC(=O)[C@H](CC(C)C)C(=O)NC(=O)CNC1=O` showed a half-inhibitory concentration (IC50) of 221 nM.

As for `COC(=O)/C=C/[C@H](CC(C)C)NC(=O)CC[C@@H]1NC(=O)[C@H](CC(C)C)NC(=O)[C@H](CC(C)C)C(=O)NC(=O)[C@H](CO)NC1=O`, the half-inhibitory concentration (IC50) is 91 nM.

A short description of the next series: cells. This is another data set of the same source.
Description: Inhibition of trypsin-like activity of 20S proteasome beta 2 subunit by cell based assay
Molecule `COC(=O)/C=C/[C@H](CC(C)C)NC(=O)CC[C@@H]1NC(=O)[C@H](CC(C)C)NC(=O)[C@H](CC(C)C)C(=O)NC(=O)CNC1=O` displayed an IC50 of 5.83 µM.

Molecule `COC(=O)/C=C/[C@H](CC(C)C)NC(=O)CC[C@@H]1NC(=O)[C@H](CC(C)C)NC(=O)[C@H](CC(C)C)C(=O)NC(=O)[C@H](CO)NC1=O` had an IC50 of 6.94 µM.

Usually half-life stands for the time needed for the level to fall by half in the phase considered. By IC50 is commonly meant the concentration that gives 50% inhibition. Read a low IC50 as greater potency.
